Where two headings read alike, the source gives them in different places.
Columns and labels:
Assay type in all cases: in vivo
[1] = system: Pharbitis purpurea (PHBPU); assay: Pre-emergence herbicidal action against PHBPU
In short: (§1)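 Pre-emergence soil-surface spray of compound, formulated as wettable powder or emulsion concentrate, in aqueous suspension or emulsion with 0.5% additive (600 l/ha; rate 320 g/ha or less). Activity rated visually after roughly 3 weeks in the greenhouse as a percentage of untreated controls, 0% meaning no difference.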

[2] = system: Avena fatua (AVEFA); assay: Post-emergence herbicidal action against AVEFA; details: visual rating about 3 weeks after treatment
In short: (§2)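 Rates were 320 g/ha or below, applied as aqueous WP/EC spray with 0.5% additive (600 l/ha) onto one-leaf-stage plants. About 3 weeks later in the greenhouse, damage was scored visually against untreated plants on a 0–100% scale, where 100% means plants died.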

[3] = system: Matricaria inodora (MATIN); assay: Post-emergence herbicidal action against MATIN
In short: as §2

[4] = system: Lolium rigidum (LOLRI); assay: Pre-emergence herbicidal action against LOLRI
In short: as §1

[5] = system: Oryza sativa (ORYSA); details: crop plant compatibility, effect in comparison to untreated controls
In short: (§3)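 Foliar application at the one-leaf stage: WP/EC formulation, 0.5% additive, 600 l/ha water. Greenhouse-grown in sandy loam. Endpoint is visual % injury relative to untreated controls at about 3 weeks.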

[6] = system: Zea mays (ZEAMX); details: crop plant compatibility
In short: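 Scoring: visual, % of untreated control, about 3 weeks after a pre-emergence application to the soil surface. Application used WP or EC formulations diluted in water with 0.5% additive at 600 l/ha; dosage levels are marked by suffixes a, b and c.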

[7] = system: Digitaria sanguinalis (DIGSA); assay: Pre-emergence herbicidal action against DIGSA
In short: as §1

[8] = system: Zea mays (ZEAMX); details: crop plant compatibility, 80 g/ha, effect vs untreated controls
In short: as §3

[9] = system: Digitaria sanguinalis (DIGSA); assay: Post-emergence herbicidal action against DIGSA; details: visual rating about 3 weeks after treatment
In short: as §2

[10] = 80 g/ha, visual scoring after about 3 weeks vs untreated controls

| Post-emergence action against ORYSA in % ([5]; 80 g/ha) [%] | Pre-emergence action against ZEAMX ([6]; 20 g/ha, effect vs untreated controls) [%] | Pre-emergence action against ZEAMX in % ([6]; pre-emergence, 80 g/ha, in comparison to untreated controls) [%] | Post-emergence action against ZEAMX in % [8] [%] | Post-emergence action against ORYSA in % ([5]; 320 g/ha) [%] | Structure (SMILES) | Pre-emergence action against PHBPU in % ([1]; dosage 80 g/ha) [%] | Pre-emergence action against PHBPU in % ([1]; dosage 320 g/ha) [%] | Post-emergence action against AVEFA in % ([2]; 80 g/ha) [%] | Post-emergence action against AVEFA in % ([2]; 320 g/ha) [%] | Post-emergence action against MATIN in % ([3]; dosage 320 g/ha) [%] | Pre-emergence action against LOLRI in % ([4]; dosage 80 g/ha) [%] | Pre-emergence action against LOLRI in % ([4]; dosage 320 g/ha) [%] | Post-emergence action against MATIN in % ([3]; dosage 80 g/ha) [%] | Pre-emergence action against DIGSA in % [7, 10] [%] | Pre-emergence action against DIGSA in % ([7]; dosage 320 g/ha) [%] | Post-emergence action against DIGSA in % ([9]; 80 g/ha) [%] | Post-emergence action against DIGSA in % ([9]; 320 g/ha) [%] |
| --- | --- | --- | --- | --- | --- | --- | --- | --- | --- | --- | --- | --- | --- | --- | --- | --- | --- |
|  |  |  |  |  | C[C@@H](Oc1nn(-c2ccccn2)c(-c2cncc(F)c2)c1Cl)C(=O)O [Example I-218] | 90 | 90 | 80 | 90 | 80 | 100 | 100 |  |  |  |  |  |
| 20 |  |  |  |  | COC(=O)C(C)COC(=O)[C@@H](C)Oc1nn(-c2ccccn2)c(-c2cncc(F)c2)c1Br (some centres unmarked) [Example I-188] | 80 | 90 | 80 | 80 | 80 | 100 | 100 |  |  |  |  |  |
|  |  |  |  |  | COC(=O)[C@@H](C)Oc1nn(-c2nc(F)ccc2F)c(-c2cncc(F)c2)c1Br [Example I-191] | 80 | 90 | 80 | 90 | 80 | 90 | 90 |  |  |  |  |  |
|  | 0 |  |  |  | CCOC(=O)COc1nn(-c2ccccn2)c(-c2ccc(F)nc2)c1Br [Example I-02] |  | 90 |  | 80 | 80 | 90 | 100 | 80 |  |  |  |  |
|  |  |  |  |  | COC(=O)[C@@H](C)Oc1nn(-c2ncccc2F)c(-c2ccc(F)nc2)c1C1CC1 [Example I-307] |  | 90 | 90 | 90 | 80 | 100 | 100 |  |  |  |  |  |
| 0 |  |  |  |  | COC(=O)C(C)COC(=O)C(C)Oc1nn(-c2ccccn2)c(-c2ccc(F)nc2)c1Cl (centres unmarked) [Example I-291] |  | 80 | 80 | 80 |  | 90 | 100 |  | 100 | 100 |  |  |
|  |  |  |  |  | COC(=O)[C@@H](C)Oc1nn(-c2ccccn2)c(-c2cncc(F)c2)c1Cl [Example I-189] | 90 | 90 | 90 | 90 | 90 | 100 | 100 | 90 |  |  |  |  |
|  |  |  |  |  | C[C@@H](Oc1nn(-c2ncccc2F)c(-c2ccc(F)nc2)c1C1CC1)C(=O)O [Example I-342] | 80 | 90 | 90 | 100 | 100 | 100 | 100 |  |  |  |  |  |
|  |  | 0 |  |  | COCCOC(=O)COc1nn(-c2ccccn2)c(-c2ccc(F)nc2)c1Br [Example I-96] | 90 | 90 | 80 | 90 | 80 | 90 | 100 |  |  |  |  |  |
|  |  |  |  |  | COC(=O)C(C)NC(=O)[C@@H](C)Oc1nn(-c2ccccn2)c(-c2cncc(F)c2)c1Cl (some centres unmarked) [Example I-199] | 80 | 90 |  | 80 | 80 | 100 | 100 |  |  |  |  |  |
| 0 |  |  | 0 |  | COC(=O)[C@@H](C)Oc1nn(-c2ncccc2F)c(-c2ccc(F)nc2)c1I [Example I-341] |  | 90 | 80 | 80 | 90 | 100 | 100 |  |  |  |  |  |
| 10 |  |  |  | 20 | COC(=O)CNC(=O)[C@@H](C)Oc1nn(-c2ccccn2)c(-c2cncc(F)c2)c1Br [Example I-187] | 90 | 90 |  | 80 | 80 | 90 | 100 |  |  |  |  |  |
|  |  |  |  |  | COC(=O)COc1nn(-c2ncccc2F)c(-c2cncc(F)c2)c1C1CC1 [Example I-167] | 90 | 90 | 80 | 90 |  | 100 | 100 |  | 100 | 100 | 90 | 90 |
| 20 |  |  |  |  | COC(=O)C(C)NC(=O)[C@@H](C)Oc1nn(-c2ccccn2)c(-c2cncc(F)c2)c1Br (some centres unmarked) [Example I-190] | 90 | 90 |  | 80 | 80 | 100 | 100 |  |  |  |  |  |
| 20 |  |  |  |  | COC(=O)[C@@H](C)COC(=O)COc1nn(-c2ccccn2)c(-c2cncc(F)c2)c1Br [Example I-194] | 90 | 90 |  | 90 |  | 90 | 100 |  | 90 | 100 | 80 | 90 |
|  |  |  |  |  | CCOC(=O)[C@@H](C)Oc1nn(-c2ncccc2F)c(-c2ccc(F)nc2)c1C1CC1 [Example I-375] | 80 | 90 | 90 | 90 | 80 | 100 | 100 |  |  |  |  |  |
|  |  |  |  |  | COC(=O)C(C)COC(=O)[C@@H](C)Oc1nn(-c2ccccn2)c(-c2cncc(F)c2)c1Cl (some centres unmarked) [Example I-198] | 80 | 90 | 80 | 80 | 80 | 100 | 100 |  |  |  |  |  |
|  |  |  |  |  | COC(=O)CCOC(=O)[C@@H](C)Oc1nn(-c2ccccn2)c(-c2cncc(F)c2)c1Cl [Example I-196] | 90 | 90 | 80 | 90 | 80 | 100 | 100 |  |  |  |  |  |
|  |  |  |  |  | CCOC(=O)[C@@H](C)Oc1nn(-c2ccccn2)c(-c2cncc(F)c2)c1Cl [Example I-184] | 80 | 90 | 80 | 90 | 80 | 100 | 100 |  |  |  |  |  |
| 20 |  |  |  |  | O=C(O)COc1nn(-c2ncccc2F)c(-c2cncc(F)c2)c1C1CC1 [Example I-175] | 80 | 90 | 80 | 80 |  | 100 | 100 |  | 100 | 100 | 90 | 90 |
| 10 |  |  |  |  | C[C@@H](Oc1nn(-c2ncccc2F)c(-c2ccc(F)nc2)c1I)C(=O)O [Example I-343] | 80 | 90 | 80 | 80 | 80 | 90 | 90 |  |  |  |  |  |
|  |  |  |  |  | CCOC(=O)COc1nn(-c2ncccc2F)c(-c2cncc(F)c2)c1C1CC1 [Example I-174] | 90 | 90 | 80 | 90 |  | 100 | 100 |  | 100 | 100 | 90 | 90 |
|  |  |  |  |  | COC(=O)[C@@H](C)Oc1nn(-c2ncccc2F)c(-c2ccc(F)nc2)c1C(F)(F)F [Example I-331] |  | 90 | 90 | 90 | 80 | 90 | 100 | 80 |  |  |  |  |

— patent US20240041042A1, “1-(PYRIDYL)-5-AZINYLPYRAZOLE DERIVATIVES, AND THEIR USE FOR CONTROL OF UNDESIRED PLANT GROWTH” (Bayer Aktiengesellschaft, priority 2020, published 2024)
